{
  "source": "paper PMC4790425",
  "about": "(Journal of medicinal chemistry, 2015)",
  "key": {"CCK2R WT [1]": {"target": "T1, CCK2R WT (Homo sapiens, UniProt P32239)", "T1 sequence (P32239 1-447)": "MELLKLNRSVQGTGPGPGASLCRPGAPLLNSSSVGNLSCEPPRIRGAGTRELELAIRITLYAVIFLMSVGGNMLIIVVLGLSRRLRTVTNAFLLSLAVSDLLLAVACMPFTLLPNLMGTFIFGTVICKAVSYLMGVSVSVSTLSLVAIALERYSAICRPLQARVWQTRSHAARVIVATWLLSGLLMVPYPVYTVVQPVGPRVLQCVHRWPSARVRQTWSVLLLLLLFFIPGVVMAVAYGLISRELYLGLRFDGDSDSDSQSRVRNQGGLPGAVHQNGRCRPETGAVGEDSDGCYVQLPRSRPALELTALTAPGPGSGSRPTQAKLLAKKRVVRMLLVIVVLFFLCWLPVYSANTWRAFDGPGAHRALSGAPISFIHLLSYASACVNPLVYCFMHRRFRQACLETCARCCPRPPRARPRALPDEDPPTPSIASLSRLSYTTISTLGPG", "assay": "Competition binding with 125I-BDZ-2, CHO membranes", "conditions": "125I-BDZ-2 radioligand; allosteric ternary complex model"}, "CCK2R WT [2]": {"target": "T1, CCK2R WT", "assay": "Competition binding with 125I-CCK, CHO membranes", "conditions": "for α (cooperativity constant): 125I-CCK radioligand, allosteric ternary complex model; for inhibition of saturable 125I-CCK binding: maximal inhibition at CCK2R"}, "CCK2R WT [3]": {"target": "T1, CCK2R WT", "assay": "Intracellular calcium response, CHO-CCK2R cells", "format": "cell-based"}, "CCK1R WT [4]": {"target": "T2, CCK1R WT (Homo sapiens, UniProt P32238)", "T2 sequence (P32238 1-428)": "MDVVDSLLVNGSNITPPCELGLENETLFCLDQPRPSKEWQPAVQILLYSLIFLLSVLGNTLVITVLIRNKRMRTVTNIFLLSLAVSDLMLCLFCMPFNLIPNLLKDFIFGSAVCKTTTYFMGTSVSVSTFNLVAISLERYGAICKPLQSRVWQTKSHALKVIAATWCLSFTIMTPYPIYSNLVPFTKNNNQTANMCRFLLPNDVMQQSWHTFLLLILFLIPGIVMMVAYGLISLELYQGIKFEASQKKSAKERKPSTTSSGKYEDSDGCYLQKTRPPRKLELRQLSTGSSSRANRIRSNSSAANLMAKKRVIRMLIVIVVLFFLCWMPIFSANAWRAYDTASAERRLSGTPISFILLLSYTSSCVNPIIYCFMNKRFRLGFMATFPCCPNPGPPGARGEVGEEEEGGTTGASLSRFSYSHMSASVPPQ", "assay": "Competition binding with 125I-BDZ-1, CHO membranes", "conditions": "for α (cooperativity constant): 125I-BDZ-1 radioligand, allosteric ternary complex model"}, "CCK1R WT [5]": {"target": "T2, CCK1R WT", "assay": "Competition binding with 125I-CCK, CHO membranes", "conditions": "125I-CCK radioligand; allosteric ternary complex model"}, "CCK1R WT [6]": {"target": "T2, CCK1R WT", "conditions": "compared with CCK at the CCK1R"}, "rCCK1R-Ala317,321,325": {"target": "T3, rCCK1R-Ala317,321,325 (Rattus norvegicus, UniProt P30551, I332A/L340A/V336A)", "T3 sequence (P30551 1-444 I332A/V336A/L340A)": "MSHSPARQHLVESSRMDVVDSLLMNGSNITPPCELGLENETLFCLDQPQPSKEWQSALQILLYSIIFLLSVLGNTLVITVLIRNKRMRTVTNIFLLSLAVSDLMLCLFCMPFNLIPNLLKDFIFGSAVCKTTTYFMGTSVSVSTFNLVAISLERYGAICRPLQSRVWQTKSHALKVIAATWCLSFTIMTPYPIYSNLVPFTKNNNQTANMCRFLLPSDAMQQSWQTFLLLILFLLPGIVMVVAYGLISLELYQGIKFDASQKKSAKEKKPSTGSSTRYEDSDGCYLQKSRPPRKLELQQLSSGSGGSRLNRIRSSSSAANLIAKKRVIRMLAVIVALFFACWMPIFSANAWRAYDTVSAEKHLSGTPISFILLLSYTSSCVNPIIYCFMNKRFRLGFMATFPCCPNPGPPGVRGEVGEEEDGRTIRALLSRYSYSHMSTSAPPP", "format": "binding", "conditions": "non-dimerizing rat mutant"}, "wild type rat CCK1R": {"target": "T4, wild type rat CCK1R (Rattus norvegicus, UniProt P30551)", "T4 sequence (P30551 1-444)": "T3 sequence (P30551 1-444 I332A/V336A/L340A) with A332I, A336V, A340L", "assay": "Competition binding with 125I-BDZ-1, receptor expressed in COS cells"}},
  "note": "Where a chain is given by its changes, count along the chain named. “Also recorded” adds a separate entry of the source.",
  "data": [
    {"smiles": "CC(C)N(Cc1ccccc1)C(=O)CN1C(=O)[C@@H](Cc2c[nH]c3ccccc23)c2nnc(-c3ccccc3)n2-c2ccccc21", "note": "[CE-326597, N-benzyl-2-[(4S)-4-(1H-indol-3-ylmethyl)-5-oxo-1-phenyl-4,5-dihydro-6H-[1,2,4]triazolo[4,3-a][1,5]benzodiazepin-6-yl]-N-isopropylacetamide]", "values": [
      {"measurement": "α (cooperativity constant)", "setting": "CCK2R WT [1]", "result": "0.47 ± 0.06"},
      {"measurement": "α (cooperativity constant)", "setting": "CCK2R WT [2]", "result": "0.32 ± 0.01"},
      {"measurement": "inhibition of saturable 125I-CCK binding", "setting": "CCK2R WT [2]", "result": "approximately 60%"},
      {"measurement": "biological (agonist) response at the CCK2R", "setting": "CCK2R WT [3]", "result": "weak partial agonist; also recorded: very weak partial agonist"},
      {"measurement": "α (cooperativity constant)", "setting": "CCK1R WT [4]", "result": "0.54 ± 0.06"},
      {"measurement": "α (cooperativity constant)", "setting": "CCK1R WT [5]", "result": "~0.00"},
      {"measurement": "maximal intracellular calcium response", "setting": "CCK1R WT [6]", "result": "not statistically different from those elicited by CCK"}
    ]},
    {"smiles": "Cc1cc(C)cc(C[C@H]2CCCCN2C(=O)CN2C(=O)[C@@H](Cc3n[nH]c4ccccc34)c3nnc(-c4ccccc4)n3-c3ccccc32)c1", "note": "[PF-04756956, (4S)-6-{2-[(2R)-2-(3,5-dimethylbenzyl)piperidin-1-yl]-2-oxoethyl}-4-(1H-indazol-3-ylmethyl)-1-phenyl-4H-[1,2,4]triazolo[4,3-a][1,5]benzodiazepin-5(6H)-one]", "values": [
      {"measurement": "α (cooperativity constant)", "setting": "CCK2R WT [1]", "result": "0.60 ± 0.04"},
      {"measurement": "α (cooperativity constant)", "setting": "CCK2R WT [2]", "result": "0.32 ± 0.07"},
      {"measurement": "inhibition of saturable 125I-CCK binding", "setting": "CCK2R WT [2]", "result": "approximately 60%"},
      {"measurement": "biological (agonist) response at the CCK2R", "setting": "CCK2R WT [3]", "result": "no agonist activity at all; also recorded: no biological response"},
      {"measurement": "α (cooperativity constant)", "setting": "CCK1R WT [4]", "result": "0.65 ± 0.08"},
      {"measurement": "α (cooperativity constant)", "setting": "CCK1R WT [5]", "result": "~0.0"},
      {"measurement": "maximal intracellular calcium response", "setting": "CCK1R WT [6]", "result": "not statistically different from those elicited by CCK"}
    ]},
    {"smiles": "CN1C(=O)[C@@H](NC(=O)Nc2cccc(I)c2)N=C(c2ccccc2)c2ccccc21", "note": "[BDZ-1, (S)-1-(3-iodophenyl)-3-(1-methyl-2-oxo-5-phenyl-2,3-dihydro-1H-enzo[e][1,4]diazepin-3-yl)urea]", "values": [
      {"measurement": "pKi, BDZ-1 binding affinity", "setting": "rCCK1R-Ala317,321,325", "result": "9.66 ± 0.09"},
      {"measurement": "pKi, BDZ-1 binding affinity", "setting": "CCK1R WT [4]; wild type human CCK1R", "result": "8.38 ± 0.16"},
      {"measurement": "pKi, BDZ-1 binding affinity", "setting": "wild type rat CCK1R", "result": "9.55 ± 0.25"}
    ]}
  ]
}
